SMILES | melting point [°C]
CCOC(=O)C=Cc1ccc(F)c([N+](=O)[O-])c1 | 115 to 117
O=Cc1ccc(OCCN2CCN(c3cc(Cl)nnc3Cl)CC2)cc1 | 110 to 112
CCN(CC)CCN1c2cc(Cl)ccc2S[C@H]2[C@@H](O)[C@H](O)[C@@H](COC(C)=O)O[C@H]21 | 180
COc1ccc(CN2CCC3(CCc4c3n(C)c3ccccc43)CC2)cc1 | 39 to 40
Nc1nc(CCl)cc(OCC(F)(F)F)n1 | 77 to 78
CCCCc1cc2c(C)n(C)nc2c(N)n1 | 130 to 131
CCc1c(-c2ccc(OC)cc2)c2c(C(=O)OC)c(C(=O)OC)c3cc(OC)cc1n32 | 153 to 155
COC(=O)CCCCCCn1[nH]c(=O)n(C)c1=O | 80 to 81
CC1=C(Cc2ccc(OC(F)(F)F)cc2)C(=O)c2ccccc2C1=O | 64 to 65
COC(=O)c1ccc(OCCCOc2cc3c(cc2O)CCO3)cc1 | 133 to 135
CCOC(=O)CN1C(=O)C2(COc3cc(F)c(F)cc32)c2c(Br)cccc21 (stereo unspecified) | 133 to 134
Cc1cc(O)c(SCc2ccc(Cl)cc2)c(=O)o1 | 139 to 141
COCCCNC(=O)C(C)(C(C)C)C(C)C | 10
N#Cc1cc2c(cc1F)OCC21C(=O)Nc2ccccc21 (stereo unspecified) | 222 to 224
COc1ccc2c(c1)C1(CCCC1)C(O)(CC#N)CC2 (stereo unspecified) | 126 to 127
Cc1c(F)c(F)c(F)c2c1c(=O)c(C(=O)O)cn2-c1ccc(O)cc1 | 287 to 288
COC1=C(OC)C(=O)C(CCCCCCCCCC=O)=C(C)C1=O | 44.5 to 46.5
COCOc1cc(C(F)(F)F)ccc1-c1cc(-c2cccc([N+](=O)[O-])c2)c(C#N)c(NC(=O)c2cccs2)n1 | 139 to 140
O=C(Nc1ccccc1)N1C(=O)C2(CCCCC2)NC12CCCCC2 | 129 to 130
COC(=O)[C@@H]1CCCCOc2ccc(cc2)C[C@H](NC(=O)OC(C)(C)C)C(=O)N[C@@H](C(C)C)C(=O)N1 | 225 to 228
Cc1cccc(CSCCNC(=O)c2c(Cl)cccc2Cl)c1 | 56 to 57
O=C(O)CCC(CCCCNS(=O)(=O)c1ccc(Cl)cc1)CCCn1ccnc1 (stereo unspecified) | 136 to 138
Cc1cc(C(=O)Nc2ccn3cc(-c4ccccc4)nc3n2)cc(Cl)n1 | 148 to 151
COc1cc(C=O)cc(OC)c1OC1OC(COC(C)=O)C(OC(C)=O)C(OC(C)=O)C1NC(C)=O (stereo unspecified) | 222 to 225
COc1cc(O)ccc1/C=C/c1ccc(O)cc1 | 192 to 194
COc1cc(OC)nc(Oc2cccc(Oc3ccccc3)c2C(=O)O)n1 | 116 to 118

SMILES | melting point [°C]
CCCc1nc(C)n2cnnc2c1Cc1ccc(-c2ccccc2C#N)cc1 | 153
C=CCCCCCCCCC(O)CNC(=O)N(C)O (stereo unspecified) | 105 to 106
COCCOc1cc(NS(=O)(=O)c2ccccn2)c2[nH]c(C(=O)NCC(CN3CCSCC3)SCc3ccccc3)cc2c1 (stereo unspecified) | 160 to 161
CN1CCOC1=C(C#N)C=C1Nc2ccccc2C1=O | 222 to 226
N#CC(c1cccc(Cl)c1)N1CCOCC1 (stereo unspecified) | 72 to 73
O=C(Nc1n[nH]c2cc(Cl)ccc12)c1ccccc1 | 188
CC(C)(C)c1ccc(SN2CCOC2=O)cc1 | 76 to 81
COc1ccc(-c2c(Cl)nc(C)nc2NS(=O)(=O)c2ccc(OC)cc2)cc1 | 152 to 154
COc1ccc(CCNC(=O)Nc2ccccc2CCc2cc(C(C)(C)C)c(O)c(C(C)(C)C)c2)cc1OC | 158 to 160
CCn1cc(C(=O)NCc2ccc(Cl)cc2)c(=O)c2cc(C#CCOC(=O)CCC(=O)O)sc21 | 180 to 182
CCCOC12CCC(=O)C3(C)Oc4c(O)ccc5c4C31CCN(CC1CC1)C2C5 (stereo unspecified) | 184 to 186
N#Cc1ccc(-c2cn3cc(Br)ccc3n2)cc1 | 218 to 219
CN(C)C1CCN(c2cc3ccccc3c(=O)[nH]2)C1 (stereo unspecified) | 233 to 234
COC(=O)c1cc(N)c2nc(C)nn2c1 | 212
CCCOc1c(OC)cc(C=O)cc1S(=O)(=O)CCO | 111 to 112
C[C@@H](Nc1c(Nc2cccnc2)c(=O)c1=O)C(C)(C)C | 283 to 285
COc1ccc(/C(C)=C/c2ccc(C(=O)O)cc2)cc1C12CC3CC(CC(C3)C1)C2 | 307 to 308
COC(=O)C=Cc1cc(NC2CCN(Cc3ccccc3)CC2)ccc1C | 140 to 142
CCOC(=O)[C@H](C)NC(=O)CCc1cc(Cl)ccc1C(=O)CCCNC(C)=O | 106
COc1ccc(CNC(=O)c2cc([N+](=O)[O-])ccc2N[C@H]2CC[C@@H](OC(C)=O)CC2)cc1OC | 147 to 148
OCCN1CC[C@@H]2[C@H]1CCC[C@@]2(O)c1ccc(Cl)c(Cl)c1 (racemic) | 161
O=[N+]([O-])C(CSc1cccc(Cl)c1)=C1NCCN1Cc1ccc(Cl)nc1 | 143
C#CCCC(=O)N1c2ccccc2C(=O)Nc2cccnc21 | 179 to 180
CCCCc1cnc(-c2ccc(N=C=O)cc2)nc1 | 48
CCOC(=O)c1cn2c3c(c(F)c(F)cc3c1=O)CCC2CCl (stereo unspecified) | 215 to 218

Source: a melting point compilation (Tetko et al.; mined from patent text by program, amines drawn as free bases though some values may be those of a salt)
